Laboratory results taken from patent publication US6004950A, “2-aminopyridines as inhibitors of cyclooxygenase-2” (Merck Frosst Canada, Inc., priority 1998, dated 1999).
Like-named read-outs stand apart in the source and are kept apart here.

Key:
[1] = target: T1, COX-2 (Homo sapiens, UniProt P35354); experiment: Whole cell assay for COX-2 using CHO transfected cell line CHO[hCOX-2], inhibition of PGE2 synthesis; type: cell-based
T1 construct: incubation of human whole blood with LPS, which induces COX-2; endogenous in cells; host or cells: heparinized fresh whole blood of human volunteers, incubated with LPS for 24 h
T1 sequence (P35354 18-604): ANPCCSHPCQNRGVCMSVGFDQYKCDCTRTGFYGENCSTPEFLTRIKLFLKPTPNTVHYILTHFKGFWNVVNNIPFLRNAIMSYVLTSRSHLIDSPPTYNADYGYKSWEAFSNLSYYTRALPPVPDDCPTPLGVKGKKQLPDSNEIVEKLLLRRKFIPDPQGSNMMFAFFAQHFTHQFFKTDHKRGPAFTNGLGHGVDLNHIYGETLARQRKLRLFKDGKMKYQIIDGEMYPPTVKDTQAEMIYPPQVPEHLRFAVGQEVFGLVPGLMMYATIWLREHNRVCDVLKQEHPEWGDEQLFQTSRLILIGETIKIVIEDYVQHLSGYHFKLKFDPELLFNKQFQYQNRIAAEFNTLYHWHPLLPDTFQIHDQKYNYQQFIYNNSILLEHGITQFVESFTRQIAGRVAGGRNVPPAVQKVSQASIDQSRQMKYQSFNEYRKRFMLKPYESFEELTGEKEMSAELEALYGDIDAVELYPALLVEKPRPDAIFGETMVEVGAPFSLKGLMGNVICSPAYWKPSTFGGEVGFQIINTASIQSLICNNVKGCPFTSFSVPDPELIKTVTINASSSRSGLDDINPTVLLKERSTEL

[2] = target: T1, COX-2; experiment: Human whole blood assay, COX-2 (LPS-induced PGE2 production); type: cell-based
From the text: As well, platelets in whole blood contain a large amount of the COX-1 enzyme. Immediately following blood clotting, platelets are activated through a thrombin-mediated mechanism. This reaction results in the production of thromboxane B2 (TxB2) via activation of COX-1. Thus, the effect of test compounds on TxB2 levels following blood clotting can be examined and used as an index for COX-1 activity. Therefore, the degree of selectivity by the test compound can be determined by measuring the levels of PGE2 after LPS induction (COX-2) and TxB2 following blood clotting (COX-1) in the same assay.
A. COX-2 (LPS-induced PGE2 production)
Fresh blood is collected in heparinized tubes by venipuncture from both male and female volunteers. The subjects have no apparent inflammatory conditions and have not taken any NSAIDs for at least 7 days prior to blood collection. Plasma is immediately obtained from a 2 mL blood aliquot to use as blank (basal levels of PGE2).

[3] = target: COX-1 (Homo sapiens, UniProt P23219); experiment: Assay of COX-1 activity from U937 cell microsomes; type: biochemical; set-up: Assay of COX-1 Activity from U937 cell microsomes; endogenous in cells; host or cells: U937 cells, 100,000×g microsomal pellet
Sequence of COX-1 (P23219 24-599): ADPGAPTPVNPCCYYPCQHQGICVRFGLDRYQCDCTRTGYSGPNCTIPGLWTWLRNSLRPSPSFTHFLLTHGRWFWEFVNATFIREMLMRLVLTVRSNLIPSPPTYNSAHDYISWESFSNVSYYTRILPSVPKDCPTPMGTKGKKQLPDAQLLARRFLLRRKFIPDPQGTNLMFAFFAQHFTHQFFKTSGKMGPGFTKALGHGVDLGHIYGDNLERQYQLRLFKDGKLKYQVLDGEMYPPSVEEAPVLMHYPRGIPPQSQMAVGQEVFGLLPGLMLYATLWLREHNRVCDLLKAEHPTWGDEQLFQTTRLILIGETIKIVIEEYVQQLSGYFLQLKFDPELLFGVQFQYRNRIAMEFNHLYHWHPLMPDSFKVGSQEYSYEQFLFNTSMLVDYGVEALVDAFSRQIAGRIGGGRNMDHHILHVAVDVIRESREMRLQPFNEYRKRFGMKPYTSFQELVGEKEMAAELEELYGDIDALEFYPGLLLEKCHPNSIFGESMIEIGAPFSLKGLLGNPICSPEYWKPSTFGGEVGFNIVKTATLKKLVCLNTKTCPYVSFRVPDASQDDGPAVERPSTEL
Description: Assay of COX-1 Activity from U937 cell microsomes
U 937 cells are pelleted by centrifugation at 500×g for 5 min and washed once with phosphate-buffered saline and repelleted. Cells are resuspended in homogenization buffer consisting of 0.1 M Tris-HCl, pH 7.4, 10 mM EDTA, 2 μg/ml leupeptin, 2 μg/ml soybean trypsin inhibitor, 2 μg/ml aprotinin and 1 mM phenyl methyl sulfonyl fluoride. The cell suspension is sonicated 4 times for 10 sec and is centrifuged at 10,000×g for 10 min at 4° C. The supernatant is centrifuged at 100,000×g for 1 hr at 4° C. The 100,000×g microsomal pellet is resuspended in 0.1 M Tris-HCl, pH 7.4, 10 mM EDTA to approximately 7 mg protein/ml and stored at -80° C.
Microsomal preparations are thawed immediately prior to use, subjected to a brief sonication, and then diluted to a protein concentration of 125 μg/ml in 0.1 M Tris-HCl buffer, pH 7.4 containing 10 mM EDTA, 0.5 mM phenol, 1 mM reduced glutathione and 1 μM hematin. Assays are performed in duplicate in a final volume of 250 μl. Initially, 5 μl of DMSO vehicle or drug in DMSO are added to 20 μl of 0.1 M Tris-HCl buffer, pH 7.4 containing 10 mM EDTA in wells of a 96-deepwell polypropylene titre plate. 200 μl of the microsomal preparation are then added and pre-incubated for 15 min at room temperature before addition of 25 μl of […] arachidonic acid in […] Tris-HCl and 10 mM EDTA, pH 7.4. Samples are incubated for 40 min at room temperature and the reaction is stopped by the addition of 25 μl of 1 N HCl. Samples are neutralized with 25 μl of 1 N NaOH prior to quantitation of PGE2 content by radioimmunoassay (Dupont-NEN or Amersham assay kits). Cyclooxygenase activity is defined as the difference between PGE2 levels in samples incubated in the presence of arachidonic acid and ethanol vehicle.
In the assay, inhibition is determined by measuring the amount of prostaglandin E2 (PGE2) synthesized in the presence of arachidonic acid, cyclooxygenase-1 or cyclooxygenase-2 and a putative inhibitor.

[4] = U937 cell microsomes, PGE2, read-out: COX-1 (IC50 mM) U-937
[5] = CHO[hCOX-2] cells, 10 μM AA, PGE2, read-out: COX-2 (IC50 mM) CHO
[6] = human whole blood, LPS-induced PGE2, 24 h, read-out: COX-2 (IC50 mM) HWB

Row | Structure (SMILES) | IC50 [1] [µM] | IC50 [2] [mM] | IC50 [3, 4] [mM] | IC50 [3] [mM] | IC50 [1, 5] [µM] | IC50 [2, 6] [mM]
1 | CS(=O)(=O)c1ccc(-c2cc(C(F)(F)F)cnc2N2CCC[C@H](CO)C2)cc1 (single isomer, unassigned) [Example 14, (-)-3-(4-Methylsulfonyl)phenyl-2-(3-hydroxymethyl)piperidin-1-yl-5-trifluoromethylpyridine] | 0.03 | 0.0005 | 0.003 to 0.01 | – | – | –
2 | CS(=O)(=O)c1ccc(-c2cc(C(F)(F)F)cnc2N2CCC[C@@H](CO)C2)cc1 (single isomer, unassigned) [Example 15, (+)-3-(4-Methylsulfonyl)phenyl-2-(3-hydroxymethyl)piperidin-1-yl-5-trifluoromethylpyridine] | 0.03 | 0.0266 | > 0.01 | – | – | –
3 | CS(=O)(=O)c1ccc(-c2cc(C(F)(F)F)cnc2N2CCCC2)cc1 [Example 1, 3-(4-Methylsulfonyl)phenyl-2-pyrrolidin-1-yl-5-trifluoromethylpyridine] | 0.02 | 0.0097 | – | > 0.01 | – | –
4 | CS(=O)(=O)c1ccc(-c2cc(Cl)cnc2N2CCCCC2)cc1 [Example 3, 5-Chloro-3-(4-methylsulfonyl)phenyl-2-piperidin-1-ylpyridine] | – | – | 0.001 to 0.003 | – | – | –
5 | CS(=O)(=O)c1ccc(-c2cccnc2N2CCCCC2)cc1 [Example 4, 3-(4-Methylsulfonyl)phenyl-2-piperidin-1-ylpyridine] | – | – | > 0.05 | – | 0.13 | 0.006
6 | CS(=O)(=O)c1ccc(-c2cc(C(F)(F)F)cnc2N2CC=CCC2)cc1 [Example 5, 3-(4-Methylsulfonyl)phenyl-2-(1,2,3,6-tetrahydropyridinyl)-5-trifluoromethylpyridine] | – | – | 0.001 to 0.003 | – | 0.002 | 0.001
7 | CS(=O)(=O)c1ccc(-c2cc(C(F)(F)F)cnc2N2CCCCCC2)cc1 [Example 6, 2-(Homopiperidin-1-yl)-3-(4-methylsulfonyl)phenyl-5-trifluoromethylpyridine] | – | – | 0.01 | – | 0.004 | 0.006
8 | CS(=O)(=O)c1ccc(-c2cc(C(F)(F)F)cnc2N2CCC[C@H]2CO)cc1 [Example 7, 3-(4-Methylsulfonyl)phenyl-2-((2S)-2-hydroxymethyl)pyrrolidin-1-yl-5-trifluoromethylpyridine] | – | – | 0.003 to 0.01 | – | 0.04 | 0.0002
9 | CS(=O)(=O)c1ccc(-c2cc(C(F)(F)F)cnc2N2CCC[C@@H]2CO)cc1 [Example 8, 3-(4-Methylsulfonyl)phenyl-2-((2R)-2-hydroxymethyl)pyrrolidin-1-yl-5-trifluoromethylpyridine] | – | – | > 0.01 | – | > 5 | > 0.033
10 | CS(=O)(=O)c1ccc(-c2cc(Cl)cnc2N2CCC[C@H]2CO)cc1 [Example 9, 5-Chloro-3-(4-methylsulfonyl)phenyl-2-((2S)-2-hydroxymethyl)pyrrolidin-1-ylpyridine] | – | – | 0.001 to 0.003 | – | 0.03 | 0.0001
11 | COC[C@@H]1CCCN1c1ncc(C(F)(F)F)cc1-c1ccc(S(C)(=O)=O)cc1 [Example 10, 3-(4-Methylsulfonyl)phenyl-2-((2S)-2-methoxymethyl)pyrrolidin-1-yl-5-trifluoromethylpyridine] | – | – | 0.003 to 0.01 | – | 0.09 | 0.0031
12 | CC(=O)OC[C@@H]1CCCN1c1ncc(C(F)(F)F)cc1-c1ccc(S(C)(=O)=O)cc1 [Example 11, 3-(4-Methylsulfonyl)phenyl-2-((2S)-2-acetoxymethyl)pyrrolidin-1-yl-5-trifluoromethylpyridine] | – | – | > 0.01 | – | 0.07 | < 0.0004
13 | COC[C@@H]1CCCN1c1ncc(Cl)cc1-c1ccc(S(C)(=O)=O)cc1 [Example 12, 5-Chloro-3-(4-methylsulfonyl)phenyl-2-((2S)-2-methoxymethyl)pyrrolidin-1-ylpyridine] | – | – | 0.003 to 0.01 | – | – | –
14 | CS(=O)(=O)c1ccc(-c2cc(C(F)(F)F)cnc2N2CCCCC2CO)cc1 (stereo not drawn) [Example 13, 3-(4-Methylsulfonyl)phenyl-2-(2-hydroxymethyl)piperidin-1-yl-5-trifluoromethylpyridine] | – | – | 0.01 | – | 0.1 | 0.0027
15 | CS(=O)(=O)c1ccc(-c2cc(Cl)cnc2N2CCCC(CO)C2)cc1 (stereo not drawn) [Example 16, 5-Chloro-3-(4-methylsulfonyl)phenyl-2-(3-hydroxymethyl)piperidin-1-ylpyridine] | – | – | > 0.01 | – | – | –
16 | CC1(CO)CCCN(c2ncc(C(F)(F)F)cc2-c2ccc(S(C)(=O)=O)cc2)C1 (stereo not drawn) [Example 17, 3-(4-Methylsulfonyl)phenyl-2-(3-hydroxymethyl-3-methyl)piperidin-1-yl-5-trifluoromethylpyridine] | – | – | > 0.01 | – | 0.4 | 0.0053
17 | CS(=O)(=O)c1ccc(-c2cc(C(F)(F)F)cnc2N2CCCCC(CO)C2)cc1 (stereo not drawn) [Example 18, 3-(4-Methylsulfonyl)phenyl-2-(3-hydroxymethyl)homopiperidin-1-yl-5-trifluoromethylpyridine] | – | – | > 0.01 | – | 0.08 | 0.0234
18 | CS(=O)(=O)c1ccc(-c2cc(C(F)(F)F)cnc2N2CCCCC2CCO)cc1 (stereo not drawn) [Example 19, 3-(4-Methylsulfonyl)phenyl-2-(2-(2-hydroxyethyl))piperidin-1-yl-5-trifluoromethylpyridine] | – | – | > 0.01 | – | 0.92 | 0.0032
19 | CS(=O)(=O)c1ccc(-c2cc(C(F)(F)F)cnc2N2CCC(=O)CC2)cc1 [Example 20, 3-(4-Methylsulfonyl)phenyl-2-(4-oxo)piperidin-1-yl-5-trifluoromethylpyridine] | – | – | > 0.01 | – | 0.09 | 0.0104
20 | CS(=O)(=O)c1ccc(-c2cc(C(F)(F)F)cnc2N2CCCC(=O)C2)cc1 [Example 21, 3-(4-Methylsulfonyl)phenyl-2-(3-oxo)piperidin-1-yl-5-trifluoromethylpyridine] | – | – | > 0.01 | – | 0.11 | 0.0053
21 | CS(=O)(=O)c1ccc(-c2cc(C(F)(F)F)cnc2N2CCC(O)CC2)cc1 [Example 22, 3-(4-Methylsulfonyl)phenyl-2-(4-hydroxy)piperidin-1-yl-5-trifluoromethylpyridine] | – | – | > 0.01 | – | 0.03 | 0.0108
22 | CS(=O)(=O)c1ccc(-c2cc(C(F)(F)F)cnc2N2CCCC(O)C2)cc1 (stereo not drawn) [Example 23, 3-(4-Methylsulfonyl)phenyl-2-(3-hydroxy)piperidin-1-yl-5-trifluoromethylpyridine] | – | – | – | > 0.01 | 0.03 | 0.0075
